Measured values from US8025905B2, “Method for reducing allergencity in indoor spaces” (priority 2001, dated 2011).

B1: subtilisin BPN: subtilisin-type protease derived from B. amyloliquefaciens (protein, UniProt P00782 108-382, looked up)
Subtilisin BPN': AQSVPYGVSQIKAPALHSQGYTGSNVKVAVIDSGIDSSHPDLKVAGGASMVPSETNPFQDNNSHGTHVAGTVAALNNSIGVLGVAPSASLYAVKVLGADGSGQYSWIINGIEWAIANNMDVINMSLGGPSGSAALKAAVDKAVASGVVVVAAAGNEGTSGSSSTVGYPGKYPSVIAVGAVDSSNQRASFSSVGPELDVMAPGVSIQSTLPGNKYGAYNGTSMASPHVAGAAALILSKHPNWTNTQVRSSLENTTTKLGDSFYYGKGLINVQAAAQ
B2: subtilisin savinase: subtilisin-type protease derived from Bacillus lentus (protein, UniProt P29600 1-269, looked up)
Subtilisin Savinase: AQSVPWGISRVQAPAAHNRGLTGSGVKVAVLDTGISTHPDLNIRGGASFVPGEPSTQDGNGHGTHVAGTIAALNNSIGVLGVAPSAELYAVKVLGASGSGSVSSIAQGLEWAGNNGMHVANLSLGSPSPSATLEQAVNSATSRGVLVVAASGNSGAGSISYPARYANAMAVGATDQNNNRASFSQYGAGLDIVAPGVNVQSTYPGSTYASLNGTSMATPHVAGAAALVKQKNPSWSNVQIRNHLKNTATSLGSTNLYGSGLVNAEAATR

Experiments:
[1] = test system: house dust mites; conditions: levels of only 0.1% permethrin; cited from earlier work
[2] = ointment containing 5% permethrin applied for 12 hours, then washed off; cited from earlier work
[3] = test system: allergenic polypeptides; assay: Enzymatic degradation of allergens by proteases; type: biochemical
Description: Any enzyme that will cleave the allergenic polypeptides to destroy the epitopes recognized by the asthmatic's sensitized immune system is suitable, but proteases that are less specific (i.e., hydrolyze peptide bonds between a variety of different amino acid residues, rather than only between specific residues) are preferred. […] Similar non-specific proteases are suitable for use in this invention, as well as Bacillus neutral proteases and the like. Genetically engineered enzymes are within the contemplation of this invention, so long as the resulting enzyme can be shown to destroy allergenic epitopes of the primary allergens, as shown by ELISA tests (see, e.g., U.S. Pat. No. 5,314,991). Suitable assays may be analogous to the tests for active T cell epitopes of Der pI, Der pII, Der f1, and Der fII disclosed in U.S. Pat. No. 5,968,526 (incorporated herein by reference).

Molecule	kill of house dust mites in carpet [1]	permethrin absorbed through the skin [2]	effectiveness in cleaving allergenic polypeptides [3]
CC1(C)C(C=C(Cl)Cl)C1C(=O)OCc1cccc(Oc2ccccc2)c1 (stereo not shown) [Permethrin]	100%	Less than 2%	
B1			effective
B2			effective
